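Protocol summary: plate cells (96-well), add compound at 5 concentrations, incubate 48 h, interpolate endpoints linearly. Abbreviation: GI50, concentration required for 50% inhibition of growth. At the TGI there is no net growth.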

For one assay, the system named is EKVX NSCLC. Put plainly: inhibition of tumour cell growth, NCI panel, 48 h.
On to `Cc1cc(-c2ccc3nc(C4CCOCC4)n(CCOC(F)(F)F)c3c2)cn(C)c1=O`, for which the GI50 is 0.761 µM and the TGI was more than 100 µM.

Turning to `c1ccc(COc2cccc3ccc[n+](Cc4ccccc4)c23)cc1`, the TGI is more than 100 µM.

Compound `CCOC(=O)C(=C=C=C(c1ccccc1)c1ccccc1)C(=O)OCC` registered a TGI of 82.8 µM.

For the compound `CC1=CC(O)(c2ccc(-c3ccccc3Cl)cc2)OC1=O` (stereo unspecified), the TGI is more than 100 µM.

`OCCCCCNCc1cc2cc3c(cc2c2cc(OCc4ccccc4)ccc12)OCO3`: the GI50 was 1.75 µM and the TGI came to 3.28 µM.

Compound `C/C(=N\NC(=S)NC(CCC(=O)O)C(=O)O)c1ccccn1` (stereo unspecified) registered a TGI of more than 100 µM.

On to `Cc1ccc(NC(=O)c2cc3cc(N=Nc4ccccc4C(=O)O)ccc3oc2=O)cc1`, for which the TGI is more than 100 µM.

With `COc1ccc(S(=O)(=O)NNS(C)(=O)=O)cc1`, the TGI was more than 100 µM.

With `O=C(/C=C\c1ccc(Cl)c(Cl)c1)c1ccc(Cl)cc1Cl`, the TGI came out at 56.2 µM.

In turn, `CCN1c2ccccc2C(C(SC)S(=O)(=O)c2ccc(C)cc2)c2c1[nH]c(=O)n(C)c2=O` (stereo unspecified) registered a TGI of more than 100 µM.

`COC(OC)C(C)CC(=O)N(C)C` (stereo unspecified) registered a TGI of more than 100 µM.

A further assay deals with HCC-2998 colon. Kind of assay: inhibition of tumour cell growth, NCI panel, 48 h.
The compound `O=c1cc(-c2ccccc2)oc2cc(OCCCOc3ccc4c(=O)cc(-c5ccccc5)oc4c3)ccc12` yielded a TGI of more than 100 µM.

For the compound `Clc1ccc(C(c2ccc(Cl)cc2)c2ccccn2)cc1`, the TGI came out at 30.9 µM.

`CC(C)=Cc1cc(C(=O)Nc2ccc(Cl)c(Cl)c2)nc(N)n1` displayed a TGI of more than 100 µM.

`Cn1cnc([N+](=O)[O-])c1Sc1nc2ccccc2[nH]1` yielded a TGI of 26.9 µM.

Regarding `COc1ccc([C@H]2[C@@H](F)C(=O)N2c2cc(OC)c(OC)c(OC)c2)cc1F`, the GI50 is 0.406 µM and the TGI was more than 100 µM.

`CCCCCCN(CCCCCC)C(=O)Cc1c2n(c3ccccc13)Cc1ccccc1-2` displayed a TGI of more than 100 µM.

Compound `CCCCCCCCC/C=C1\CCC(CN2CCOCC2)C1=O` (stereo unspecified) returned a TGI of 18.8 µM.

The compound `O=c1[nH]c(Nc2nc3ccccc3[nH]2)nc(O)c1-c1ccccc1` registered a TGI of more than 100 µM.

The compound `CC(=O)OC1COC(n2ccc3cc(Br)c([N+](=O)[O-])cc32)C(OC(C)=O)C1OC(C)=O` (stereo unspecified) had a TGI of 59.6 µM.

The compound `CCOC(=O)NC(=O)c1cn(CCCO)c(=O)[nH]c1=O` had a TGI of more than 100 µM.

`CN(C)c1nc(=Nc2ccc(N=c3nc(N(C)C)ss3)cc2)ss1` showed a TGI of more than 100 µM.

On to `CCc1cc(Cc2cc(CC)c(NC(=O)C(=O)Cc3ccccn3)c(CC)c2Cl)c(Cl)c(CC)c1NC(=O)C(=O)Cc1ccccn1`, for which the TGI was more than 100 µM.

Turning to `O=C1c2cc3c(cc2-c2c1c1ccc(F)cc1c(=O)n2CCCNCCO)OCO3`, the GI50 was 0.0537 µM and the TGI came to 0.272 µM.

Compound `C[Si](C)(C)C1(Sc2ccccc2)SCCCS1` returned a TGI of more than 100 µM.

As to `c1ccc(COc2cccc3ccc[n+](Cc4ccccc4)c23)cc1`, the TGI worked out at 41.4 µM.

On to `O=S1(=O)OCCOS(=O)(=O)C1Br`, for which the TGI is more than 100 µM.

In the case of `CCOC(=O)C(=C=C=C(c1ccccc1)c1ccccc1)C(=O)OCC`, the TGI amounted to 61.4 µM.

`CC1=CC(O)(c2ccc(-c3ccccc3Cl)cc2)OC1=O` (stereo unspecified) registered a TGI of more than 100 µM.

As to `C/C(=N\NC(=S)NC(CCC(=O)O)C(=O)O)c1ccccn1` (stereo unspecified), the TGI is more than 100 µM.

Compound `C#CC1(O)CCC2C3CCc4cc(Oc5nc(F)nc(-c6c7ccccc7c7sc8ccccc8n67)n5)ccc4C3CC[C@@]21C` (stereo partly specified) displayed a TGI of more than 100 µM.

With `COc1ccc(S(=O)(=O)NNS(C)(=O)=O)cc1`, the TGI was more than 100 µM.

Turning to `O=C(/C=C\c1ccc(Cl)c(Cl)c1)c1ccc(Cl)cc1Cl`, the TGI came to 58.6 µM.

As for `CCN1c2ccccc2C(C(SC)S(=O)(=O)c2ccc(C)cc2)c2c1[nH]c(=O)n(C)c2=O` (stereo unspecified), the TGI was more than 100 µM.

For `COC(OC)C(C)CC(=O)N(C)C` (stereo unspecified), the TGI is more than 100 µM.

The test system of another assay is RXF 393 renal. Kind of assay: inhibition of tumour cell growth, NCI panel, 48 h.
The compound `O=c1cc(-c2ccccc2)oc2cc(OCCCOc3ccc4c(=O)cc(-c5ccccc5)oc4c3)ccc12` registered a TGI of more than 100 µM.

The compound `Clc1ccc(C(c2ccc(Cl)cc2)c2ccccn2)cc1` displayed a TGI of 28.2 µM.

`CC(C)=Cc1cc(C(=O)Nc2ccc(Cl)c(Cl)c2)nc(N)n1` yielded a TGI of more than 100 µM.

The compound `Cn1cnc([N+](=O)[O-])c1Sc1nc2ccccc2[nH]1` showed a TGI of 25.3 µM.

For `COc1ccc([C@H]2[C@@H](F)C(=O)N2c2cc(OC)c(OC)c(OC)c2)cc1F`, the GI50 is 0.0398 µM and the TGI came to 66 µM.

On to `CCCCCCN(CCCCCC)C(=O)Cc1c2n(c3ccccc13)Cc1ccccc1-2`, for which the TGI is more than 100 µM.

As to `CCCCCCCCC/C=C1\CCC(CN2CCOCC2)C1=O` (stereo unspecified), the TGI is 4 µM.

Take `O=c1[nH]c(Nc2nc3ccccc3[nH]2)nc(O)c1-c1ccccc1`: the TGI is more than 100 µM.

The compound `CC(=O)OC1COC(n2ccc3cc(Br)c([N+](=O)[O-])cc32)C(OC(C)=O)C1OC(C)=O` (stereo unspecified) registered a TGI of more than 100 µM.

As for `CC(=O)[C@@]12O[C@@H]1CC1C3CCC4=CC(O)CCC4(C)C3CCC12C` (stereo partly specified), the GI50 was 28.6 µM and the TGI was determined as 65.6 µM.

`CN(C)c1nc(=Nc2ccc(N=c3nc(N(C)C)ss3)cc2)ss1`: the TGI came out at 41.4 µM.

As for `O=C1c2cc3c(cc2-c2c1c1ccc(F)cc1c(=O)n2CCCNCCO)OCO3`, the GI50 was 0.1 µM and the TGI came out at 0.322 µM.

Consider `C[Si](C)(C)C1(Sc2ccccc2)SCCCS1`, for which the TGI was more than 100 µM.

For the compound `Cc1cc(-c2ccc3nc(C4CCOCC4)n(CCOC(F)(F)F)c3c2)cn(C)c1=O`, the GI50 is 0.885 µM and the TGI came out at 6.34 µM.

As for `c1ccc(COc2cccc3ccc[n+](Cc4ccccc4)c23)cc1`, the TGI came out at 61.9 µM.

Take `CCOC(=O)C(=C=C=C(c1ccccc1)c1ccccc1)C(=O)OCC`: the TGI is 32.8 µM.

With `CC1=CC(O)(c2ccc(-c3ccccc3Cl)cc2)OC1=O` (stereo unspecified), the TGI is more than 100 µM.

Consider `OCCCCCNCc1cc2cc3c(cc2c2cc(OCc4ccccc4)ccc12)OCO3`, for which the GI50 was 1.04 µM and the TGI amounted to 2.2 µM.

In turn, `C/C(=N\NC(=S)NC(CCC(=O)O)C(=O)O)c1ccccn1` (stereo unspecified) displayed a TGI of more than 100 µM.

In turn, `Cc1ccc(NC(=O)c2cc3cc(N=Nc4ccccc4C(=O)O)ccc3oc2=O)cc1` came in with a TGI of more than 100 µM.

As for `COc1ccc(S(=O)(=O)NNS(C)(=O)=O)cc1`, the TGI was more than 100 µM.

Turning to `O=C(/C=C\c1ccc(Cl)c(Cl)c1)c1ccc(Cl)cc1Cl`, the TGI worked out at 39.7 µM.

Source of the values: PubChem BioAssay (NCI).
